# What was measured:
# NcCyP [1] = test: ELISA of NcCyP-specific antibody levels in sera of vaccinated mice; format: in vivo, N. caninum; conditions: mouse sera 1:100, both trials, 3 weeks after challenge
# Experimental: (§1) Adult female BALB/c mice (10-12 weeks old; 15 per group; National Cancer Institute, Frederick, Md.) were immunized s.c. in the lower back with a dose of 20 μg of rNcCyP, rNcSRS2, or 20 μg each of NcCyP and NcSRS2 formulated with adjuvants ImmuMax-SR® (a chitosan-based oil emulsion formulation [U.S. Pat. No. 5,980,912; Nov. 9, 1999]; (Repros Therapeutics Inc., formerly Zonagen Inc., TX) and CpG (ImmunoEasy, Qiagen) (Groups 1, 2, and 3). Control groups received non-recombinant antigen formulated with adjuvants ImmuMax-SR® and CpG (Group 4) or RPMI 1640 alone (Groups 5 and 6). The mice were given a secondary immunization 3 weeks later with the same preparation used in the primary immunization. All mice except for those in Group 6 were challenged s.c. with 10^5 N. caninum tachyzoites (NC1 isolate) in 50 μl RPMI 1640 three weeks following the secondary immunization. Group 6 mice received RPMI 1640 only and remained uninfected throughout the experiment (Table 1). […]
# (§2) Antigen-specific antibody levels of vaccinated mice were determined by ELISA using purified rNcCyP or rNcSRS2. […] The wells were incubated with alkaline phosphatase-labeled goat anti-mouse IgG (H+L ch. sp., 1:5,000, Sigma) for 1 hr at RT, followed by addition of p-nitrophenyl phosphate substrate (Sigma), and reading on a microtiter plate reader at […].
# NcSRS2 [2] = test: ELISA of NcSRS2-specific antibody levels in sera of vaccinated mice; format: in vivo, N. caninum; conditions: mouse sera 1:100, both trials, 3 weeks after challenge
# Experimental: as §1, §2
# NcCyP [3] = test: Western blot detection of anti-NcCyP antibodies in mouse sera (NcAg as antigen); format: in vivo, N. caninum; conditions: for percent of mice with detectable antibodies against NcCyP: overall data from both trials
# Experimental: (§3) Adult female BALB/c mice (10-12 weeks old; 15 per group; National Cancer Institute, Frederick, Md.) were immunized s.c. in the lower back with a dose of 20 μg of rNcCyP, rNcSRS2, or 20 μg each of NcCyP and NcSRS2 formulated with adjuvants ImmuMax-SR® (a chitosan-based oil emulsion formulation [U.S. Pat. No. 5,980,912; Nov. 9, 1999]; (Repros Therapeutics Inc., formerly Zonagen Inc., TX) and CpG (ImmunoEasy, Qiagen) (Groups 1, 2, and 3). Control groups received non-recombinant antigen formulated with adjuvants ImmuMax-SR® and CpG (Group 4) or RPMI 1640 alone (Groups 5 and 6). The mice were given a secondary immunization 3 weeks later with the same preparation used in the primary immunization. All mice except for those in Group 6 were challenged s.c. with 10^5 N. caninum tachyzoites (NC1 isolate) in 50 μl RPMI 1640 three weeks following the secondary immunization. Group 6 mice received RPMI 1640 only and remained uninfected throughout the experiment (Table 1). All mice were euthanized 3 weeks after challenge infection, and brain tissue and blood were collected at necropsy and processed for Neospora DNA and serum antibody analysis as described (Liddell et al. 1999b. Int J. Parasitol. 29: 1583-1587). Animal use and care of the present study was approved by the BARC Animal Use and Care Committee in accordance with appropriate regulations.
# The presence of specific antibodies to NcCyP or NcSRS2 was also confirmed with Western blotting using NcAg as antigen (FIG. 5). In brief, N. caninum tachyzoite protein (equivalent to 10^6 tachyzoites/blot strip) were fractionated by SDS-PAGE under reducing conditions and transblotted to Immobilon membrane (Millipore) in a semi-dry blot apparatus (BioRad). Low-range molecular weight markers (BioRad) were electrophoresed in a separate well to allow for Mr estimation of native N. caninum tachyzoite protein. After blotting, the membranes were cut into vertical strips, treated with blocking agent (PBS-2% non-fat dry milk) for 30 min at RT, and then incubated for 2 hr at RT with a 1:100 dilution of serum from individual mice in each treatment group. The blot strips were then incubated for 1 hr with biotinylated goat anti-mouse IgG (H+L ch. sp., 1:1000 dilution, Sigma Chemical Co.), followed by alkaline-phosphatase-labeled avidin (1:25,000 dilution, Sigma), and developed with NBT-BCIP substrate (Pierce). The blots were washed 3 times between each incubation step with PBS-0.05% Tween 20 (Sigma).
# NcSRS2 [4] = test: Western blot detection of anti-NcSRS2 antibodies in mouse sera (NcAg as antigen); format: in vivo, N. caninum
# Experimental: as §3, with “regulations. […]” for “regulations.”
# [5] = test system: N. caninum tachyzoites (NC1 isolate); test: Vaccination and N. caninum tachyzoite challenge; N. caninum-specific Nc5 PCR on brain tissue; format: in vivo, BALB/c mice; conditions: for Positive/Total = number of mice brain positive for N. caninum DNA/total mice in the group: 3 weeks after s.c. challenge with 10^5 tachyzoites; for level of protection against challenge infection compared to control groups: vs non-recombinant- or non-vaccinated groups
# Experimental: as §3
# Mouse brain tissue was extracted for DNA using standard procedures (Jenkins et al. 2004, supra). The presence of N. caninum in brain tissue was determined by N. caninum-specific Nc5 PCR using Np6/Np21 primers (Muller et al. 1996. J. Clin. Microbiol. 34: 2850-2852; Yamage et al. 1996. J. Parasitol. 82: 272-279) and an internal standard to control for false negative reactions as described (Jenkins et al. 2004a, supra; Liddell et al. 1999a, supra).
substance,measurement,setting,value
"Group 1: recombinant Neospora caninum cyclophilin protein (SEQ ID NO:2), 20 μg formulated with adjuvants ImmuMax-SR and CpG",levels of NcCyP-specific antibodies (ELISA) compared to other groups,NcCyP [1],significantly higher (p<0.01)
same,levels of NcSRS2-specific antibodies (ELISA) compared to other groups,NcSRS2 [2],higher (p<0.05)
same,number of mice with detectable anti-NcCyP Ab in total mice of the group,NcCyP [3]; Trial I,11/14^3
same,number of mice with detectable anti-NcCyP Ab in total mice of the group,NcCyP [3]; Trial II,12/15
same,percent of mice with detectable antibodies against NcCyP,NcCyP [3]; listed as NcCyP,about 77%
same,percent of mice with detectable antibodies against NcCyP,NcCyP [3]; listed as rNcCyP,78%
same,number of mice with detectable anti-NcSRS2 Ab in total mice of the group,NcSRS2 [4]; Trial I,0/14
same,number of mice with detectable anti-NcSRS2 Ab in total mice of the group,NcSRS2 [4]; Trial II,0/15
same,Positive/Total = number of mice brain positive for N. caninum DNA/total mice in the group,[5]; Trial I,1/15
same,Positive/Total = number of mice brain positive for N. caninum DNA/total mice in the group,[5]; Trial II,3/15
same,average percent of mice brain-positive for N. caninum,[5]; average of both trials,13%
same,percent protection,"[5]; for both trials, (mice brain negative for Nc DNA/total)x100, formulated with ImmuMax-SR/CpG",80-93%
same,Positive/Total (Mean),[5]; mean positive/total from trials I and II,2/15
same,"percent of mice brain-positive for N. caninum, range over the trials",[5]; range of trials I and II,7-20%
same,level of protection against challenge infection compared to control groups,[5]; listed as NcCyP,significantly higher protection
same,level of protection against challenge infection compared to control groups,[5]; listed as rNcCyP,higher (p<0.001) levels of protection

# Reference: patent publication US7887818B2, “Neospora caninum vaccine” (The United States of America as represented by the …, priority 2008, dated 2011)
